Data on 16 compounds can be found in PubChem BioAssay (NCI).

SMILES strings stand for the structures.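 1) Cells in 96-well plates. 2) Compound, 48 h, 5 concentrations. 3) Linear interpolation between surrounding doses. 4) Unreached endpoint = highest concentration. TGI: total growth inhibition.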 Some results are limits rather than exact numbers.

Some test systems named below: ACHN renal; CCRF-CEM leukemia; HCT-15 colon; NCI-H522 lung; RPMI-8226 leukemia; SF-268 CNS; SNB-75 CNS; SW-620 colon; NCI/ADR-RES ovarian; HS 578T breast.
What all share (assay): growth of human tumour cells (NCI), 48 h

Regarding `COC1=CC(=O)[C@@]2(C)C(C)[C@H](c3ccccc3)[C@H]2C1=O` (stereo not given in full), the TGI with ACHN renal, with CCRF-CEM leukemia, in the assay with HCT-15 colon, in the assay on NCI-H522 lung, in the assay with RPMI-8226 leukemia and with SF-268 CNS was greater than 100 µM each time. The TGI with SNB-75 CNS and with SW-620 colon was greater than 100 µM throughout.

As to `O=C(NCC(O)COc1ccccc1)c1ccccc1O` (stereo not given), the TGI with ACHN renal, with CCRF-CEM leukemia, in the assay with HCT-15 colon, in the assay with NCI-H522 lung, in the assay on NCI/ADR-RES ovarian and in the assay on RPMI-8226 leukemia was greater than 100 µM in each case. Moreover, in the assay with SW-620 colon, the TGI was greater than 100 µM.

With `CCCNC(=O)c1cc(OC)c(OC)cc1NC(=O)C12CC3CC(CC(C3)C1)C2`, the TGI with ACHN renal is 30.9 µM; in the assay on CCRF-CEM leukemia, greater than 100 µM; in the assay with HCT-15 colon, 32.7 µM; in the assay with HS 578T breast it was 51.5 µM; in the assay with NCI-H522 lung, 30 µM; in the assay on NCI/ADR-RES ovarian, 48.3 µM. The TGI with RPMI-8226 leukemia was 92.7 µM; in the assay with SF-268 CNS, 35 µM; with SW-620 colon, greater than 100 µM.

Consider `Cc1nc2nnc(CCCCCCCCc3nnc4nc(C)[nH]n34)n2[nH]1`, for which the TGI in the assay with ACHN renal, with CCRF-CEM leukemia, with HCT-15 colon, with NCI-H522 lung, in the assay on NCI/ADR-RES ovarian and in the assay on SF-268 CNS was greater than 100 µM each time. Besides, the TGI in the assay with SNB-75 CNS and in the assay with SW-620 colon was greater than 100 µM in each case.

As to `O=[N+]([O-])c1ccc(CSC2=C(c3ccc(Cl)cc3)S/C(=C3\SC(SCc4ccc([N+](=O)[O-])cc4)=C(c4ccc(Cl)cc4)S3)S2)cc1`, the TGI with ACHN renal, in the assay with CCRF-CEM leukemia, with HCT-15 colon, with HS 578T breast, in the assay on NCI-H522 lung and with NCI/ADR-RES ovarian was greater than 100 µM each time. In addition, the TGI with SF-268 CNS and in the assay with SW-620 colon was greater than 100 µM in each case.

For the compound `COc1ccc2cc(CNCCCCCCNC(=O)Nc3cccc4ccccc34)ccc2c1`, the TGI in the assay with ACHN renal, in the assay on CCRF-CEM leukemia, in the assay with HCT-15 colon, in the assay on HS 578T breast, with NCI-H522 lung and in the assay on RPMI-8226 leukemia was greater than 100 µM throughout. The TGI in the assay with SF-268 CNS, in the assay with SNB-75 CNS and in the assay on SW-620 colon was greater than 100 µM in each case.

For `COc1cccc(C2c3cc4c(cc3OC(NNS(=O)(=O)c3ccc(C)cc3)C2C)OCO4)c1O` (stereo not given), the TGI is greater than 100 µM in the assay with ACHN renal; 43.6 µM in the assay on CCRF-CEM leukemia; greater than 100 µM in the assay on HCT-15 colon; 41.6 µM with HS 578T breast; 35.9 µM in the assay on NCI-H522 lung; 32.4 µM in the assay with RPMI-8226 leukemia. Besides, the TGI with SF-268 CNS was greater than 100 µM; with SNB-75 CNS, 40.7 µM; in the assay on SW-620 colon, greater than 100 µM.

On to `N#C/C(=C/c1ccc([N+](=O)[O-])o1)c1ccccc1`, for which the TGI with ACHN renal, in the assay on CCRF-CEM leukemia, in the assay on NCI-H522 lung, with RPMI-8226 leukemia, in the assay with SF-268 CNS and with SNB-75 CNS was greater than 100 µM each time. Also, the TGI in the assay with SW-620 colon was greater than 100 µM.

Take `O=C1C=C2SC3C[C@@]24CC1(O)[N+]1=c2c4c(c(O)c4c2=C(C=N4)CC1)N3`: the TGI was 2.03 µM in the assay on CCRF-CEM leukemia; 3.92 µM in the assay on HCT-15 colon; 0.789 µM in the assay on NCI-H522 lung; 2.78 µM in the assay on NCI/ADR-RES ovarian; 1.62 µM in the assay with RPMI-8226 leukemia; 2.19 µM in the assay on SF-268 CNS. In addition, the TGI came to 3.23 µM with SNB-75 CNS and 0.809 µM with SW-620 colon.

As to `NC1=Nc2ncccc2C(=O)NN1`, the TGI with ACHN renal, in the assay with CCRF-CEM leukemia, in the assay on HCT-15 colon, with HS 578T breast, in the assay with RPMI-8226 leukemia and in the assay on SF-268 CNS was greater than 10 µM each time. Further, the TGI in the assay on SNB-75 CNS and with SW-620 colon was greater than 10 µM each time.

`CC[C@@]1(O)C(=O)OCc2c1cc1n(c2=O)Cc2c-1nc1ccc(N)cc1c2CC[Si](C)(C)C`: the TGI is less than 0.01 µM with CCRF-CEM leukemia; 14.2 µM in the assay with HCT-15 colon; 27.3 µM with HS 578T breast; 0.127 µM with NCI-H522 lung; 2.02 µM in the assay on NCI/ADR-RES ovarian; 0.0841 µM in the assay on RPMI-8226 leukemia. Also, the figures for the TGI with SF-268 CNS and in the assay with SW-620 colon were 1.76 µM and 14.6 µM, respectively.

In the case of `COc1cc2c(c(O)c1OC)C(O)C1CCC(=O)N1C2c1ccc2c(c1)OCO2` (stereo not given), the TGI in the assay on ACHN renal, with CCRF-CEM leukemia, in the assay on HCT-15 colon, with NCI-H522 lung, in the assay on NCI/ADR-RES ovarian and with SF-268 CNS was greater than 100 µM each time. The TGI in the assay on SNB-75 CNS and in the assay with SW-620 colon was greater than 100 µM in each case.

In the case of `C=CCSC1=N/C(=C\c2ccc(C)cc2)C(=O)N1CC=C`, the TGI in the assay on ACHN renal is greater than 100 µM; in the assay on HCT-15 colon it was greater than 100 µM; in the assay with HS 578T breast, greater than 100 µM; with NCI-H522 lung it was greater than 100 µM; in the assay with NCI/ADR-RES ovarian it was greater than 100 µM; in the assay with RPMI-8226 leukemia, 31.9 µM. Moreover, the TGI in the assay with SF-268 CNS and in the assay with SW-620 colon was greater than 100 µM each time.

As for `O=[N+]([O-])c1ccc(N=P(c2ccccc2)(c2ccccc2)c2ccccc2)n2nnnc12`, the TGI in the assay on ACHN renal, in the assay on CCRF-CEM leukemia, with HCT-15 colon, with NCI-H522 lung, in the assay with RPMI-8226 leukemia and in the assay with SF-268 CNS was greater than 100 µM each time. Moreover, the TGI in the assay on SNB-75 CNS is 42.6 µM; in the assay with SW-620 colon, greater than 100 µM.

With `CC(=O)OC1CCC2(C)C(CCC3C2CCC2(C)C(c4ccc(=O)oc4)C(OC(C)=O)CC32O)C1` (stereo not given), the TGI with CCRF-CEM leukemia amounted to 0.0556 µM; in the assay with HCT-15 colon, 0.0313 µM; with NCI-H522 lung, 0.025 µM; in the assay on NCI/ADR-RES ovarian, 0.0555 µM; in the assay with RPMI-8226 leukemia, 0.0595 µM; in the assay on SF-268 CNS it was 0.0341 µM. Besides, the TGI came to 0.0801 µM in the assay on SNB-75 CNS and 0.0593 µM with SW-620 colon.

For the compound `Cc1ccc(-c2ccc3c(c2)Sc2ccccc2O3)n1C`, the TGI in the assay on ACHN renal was greater than 100 µM; in the assay on CCRF-CEM leukemia, 3.95 µM; in the assay on HCT-15 colon it was greater than 100 µM; with HS 578T breast, greater than 100 µM; with NCI-H522 lung, 0.373 µM; with NCI/ADR-RES ovarian, 12.6 µM. Further, the TGI in the assay on RPMI-8226 leukemia was 0.706 µM; with SF-268 CNS, greater than 33.9 µM; with SW-620 colon it was greater than 100 µM.
